The target in the assay is T1, purified STEP46 enzyme (Homo sapiens, UniProt P54829).
T1 sequence (P54829 197-565 limits assumed): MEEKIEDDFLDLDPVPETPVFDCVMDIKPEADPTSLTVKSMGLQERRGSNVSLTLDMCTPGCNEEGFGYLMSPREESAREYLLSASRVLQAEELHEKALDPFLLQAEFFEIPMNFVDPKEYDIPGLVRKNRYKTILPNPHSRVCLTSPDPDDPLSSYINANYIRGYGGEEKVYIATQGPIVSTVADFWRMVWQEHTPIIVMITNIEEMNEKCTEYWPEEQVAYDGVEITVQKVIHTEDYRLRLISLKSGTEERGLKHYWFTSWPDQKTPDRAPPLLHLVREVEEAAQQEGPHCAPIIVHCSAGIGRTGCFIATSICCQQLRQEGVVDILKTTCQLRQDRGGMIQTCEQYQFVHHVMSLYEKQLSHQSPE
Briefly: STEP46 biochemical assay (DiFMUP fluorescence phosphatase assay). The note with it: DiFMUP 10 μM, read-out: STEP IC50. The method, boiled down:
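Purified human STEP46 preincubated 30 min at room temperature with compounds in Hepes/DTT/Brij35 buffer (2% DMSO final), then reacted with 10 μM DiFMUP for 90 min at 27°C; fluorescence read at 360/460 nm. IC50 from four-parameter fit; activation shown as negative % inhibition at 25, 50, 100 uM.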

The IC50 is the concentration needed to halve the response being measured.

Structures can show the parent of a compound that is named as a salt.

Consider `CNc1nc(-c2cccnc2)nc2c(C)c(-c3cc(F)c(F)cc3F)ccc12` [Compound 287], for which the IC50 was above 10 µM.

Take `CNc1nc(-c2cccnc2)nc2c(-c3cccc(C#N)c3)ccc(OC)c12` [Compound 489, 3—(5-methoxy-4-(methylamino)-2-(pyridin-3-yl)quinazolin-8-yl)benzonitrile dihydrochloride]: the IC50 lay in the range of 1 to 10 µM.

In the case of `CNc1nc(-c2cccnc2)nc2c(OC)cc(-c3ccccc3C#N)cc12` [Compound 205], the IC50 is 1 to 10 µM.

Turning to `CNc1nc(-c2cccnc2)nc2cc(-c3cccs3)ccc12` [Compound 319], the IC50 is 1 to 10 µM.

Consider `CNc1nc(-c2cccnc2)nc2ccc(-c3c(F)cc(F)cc3F)cc12` [Compound 457], for which the IC50 lay within 1 to 10 µM.

Regarding `COc1ccc2nc(-c3cccnc3)nc(N3CCc4ccc(Cl)cc43)c2c1` [Compound 4], the IC50 fell in the range of 1 to 10 µM.

In the case of `CNc1nc(-c2cccnc2)nc2c(F)cc(-c3cc(F)ccc3F)cc12` [Compound 572], the IC50 was in the range of 1 to 10 µM.

Regarding `Fc1cncc(Nc2nc(-c3cccnc3)nc3ccc(Cl)cc23)c1` [Compound 48], the IC50 lay within 1 to 10 µM.

Take `CNc1nc(-c2cccnc2)nc2ccc(-c3ncco3)cc12` [Compound 178]: the IC50 was above 10 µM.

On to `CNc1nc(-c2cccnc2)nc2ccc(-c3c(F)cccc3Cl)cc12` [Compound 241], for which the IC50 lay in the range of 1 to 10 µM.

Take `CNc1nc(-c2cccnc2)nc2c(F)c(-c3cccc(C#N)c3)ccc12` [Compound 511]: the IC50 was 1 to 10 µM.

For `CNc1nc(-c2cccnc2)nc2ccc(-c3cccc(CC(N)=O)c3)cc12` [Compound 166], the IC50 was above 10 µM.

Consider `Fc1ccc(-c2ccc3nc(-c4cccnc4)nc(-c4nccs4)c3c2)c(F)c1` [Compound 416], for which the IC50 was below 1 µM.

Take `CNc1nc(-c2cccnc2)nc2c(F)c(-c3cc(F)c(F)c(F)c3)ccc12` [Compound 520]: the IC50 was below 1 µM.

`CNc1nc(-c2cccnc2)nc2c(F)c(-c3ccc(C(F)(F)F)cc3)ccc12` [Compound 528]: the IC50 lay within 1 to 10 µM.

Take `Cc1c(-c2cccc(F)c2)ccc2c(N3CCc4cc(Cl)ccc43)nc(-c3cccnc3)nc12` [Compound 117]: the IC50 is above 10 µM.

As to `CNc1nc(-c2cccnc2)nc2ccc(-c3ccc(F)c4ccoc34)cc12` [Compound 233], the IC50 was below 1 µM.

For the compound `CNc1nc(-c2ccc(C)nc2)nc2cc(-c3cc(F)ccc3F)ccc12` [Compound 161], the IC50 fell in the range of 1 to 10 µM.

With `O=[N+]([O-])c1ccc2c(c1)CCN2c1nc(-c2cccnc2)nc2ccc(-c3ccc(F)cc3)cc12` [Compound 87], the IC50 is below 1 µM.

Turning to `CNc1nc(-c2cccnc2)nc2cc(Cl)c(-c3ccc(F)cc3F)cc12` [Compound 246], the IC50 was in the range of 1 to 10 µM.

Turning to `Fc1ccc(-c2ccc3nc(-c4ccnnc4)nc(NCc4ccccn4)c3c2)c(F)c1` [Compound 329], the IC50 lay within 1 to 10 µM.

Regarding `COc1ccc2c(c1)CCN2c1nc(-c2cccnc2)nc2ccc(-c3ccc(F)cc3)cc12` [Compound 90], the IC50 was below 1 µM.

For the compound `Cc1ccc(Nc2nc(-c3cccnc3)nc3ccc(-c4ccc(F)cc4)cc23)nc1` [Compound 441], the IC50 lay in the range of 1 to 10 µM.

As for `CNc1nc(-c2cncnc2)nc2ccc(-c3cccc(F)c3)cc12` [Compound 210], the 50% inhibitory concentration (IC50) lay within 1 to 10 µM.

In the case of `CNc1nc(-c2cccnc2)nc2ccc(-c3ccc(OC)cc3C(F)(F)F)cc12` [Compound 249], the IC50 is above 10 µM.

For `COc1ccc2nc(-c3cccnc3)nc(Nc3cc(Cl)ccn3)c2c1` [Compound 45, N-(4-chloropyridin-2-yl)-6-methoxy-2-(pyridin-3-yl)quinazolin-4-amine], the IC50 is above 10 µM.

Turning to `CNc1nc(-c2cccnc2)nc2cc(C)c(-c3ccc(F)c(F)c3F)cc12` [Compound 301], the IC50 is 1 to 10 µM.

With `c1ccc(CNc2nc(-c3cccnc3)nc3ccc(-c4cccs4)cc23)nc1` [Compound 601], the IC50 lay within 1 to 10 µM.

For the compound `c1ccc(CNc2nc(-c3cccnc3)nc3cc(-c4cc5ccccc5o4)ccc23)nc1` [Compound 347], the IC50 was in the range of 1 to 10 µM.

Regarding `Clc1ccc2nc(-c3cccnc3)nc(N3CCc4cccnc43)c2c1` [Compound 61], the IC50 lay in the range of 1 to 10 µM.

On to `CNc1nc(-c2cccnc2)nc2ccc(-c3cccc4[nH]c(=O)oc34)cc12` [Compound 475], for which the IC50 is below 1 µM.

Take `CNc1nc(-c2cccnc2)nc2ccc(-c3cccc(S(N)(=O)=O)c3)cc12` [Compound 235]: the IC50 was above 10 µM.

For the compound `CNc1nc(-c2cccnc2)nc2c(OC)cc(-c3cc(F)ccc3F)cc12` [Compound 252], the IC50 fell in the range of 1 to 10 µM.
